The source of these data is PMC12533803, “Rotenoids from the Roots of Vicia faba L. (Fabaceae): Structural Characterization, Cytotoxic Effects, and Molecular Docking” (Chemistry & Biodiversity, 2025).

The subject of data set [1] is MCF‐7 (breast adenocarcinoma) cell line. Description: MTT cytotoxicity assay, MCF-7. The class given is cell-based, human. As to conditions: for cytotoxic activity MCF‐7: MTT, 0.0032 to 50 µM, 72 h. As for the experimental part: (§1) ATCC CCL 247), 501Mel (melanoma; RRID: CVCL_4633), and MCF‐7 (breast adenocarcinoma; ATCC HTB 22), along with non‐tumor cells line NIH/3T3 (mouse embryonic fibroblast; ATCC CRL 1658). […] Cells were kept at 37°C in a humidified atmosphere containing 5% CO2. […] At the end of the incubation period, the culture medium was replaced with a fresh medium containing MTT solution (0.5 mg/mL) and further incubated for 3 h. The MTT solution was then removed, and the formazan crystals formed were dissolved in 150 µL of DMSO. Absorbance for each well was measured at 570 nm, and then the values thereof were normalized in the percentage of viable cells based on that of the negative control.

Data set [2] deals with HCT‐116 (human colorectal carcinoma) cell line. As to the kind of experiment: MTT cytotoxicity assay, HCT-116. The class given is cell-based. As to conditions: for cytotoxic activity HCT‐116: MTT, 0.0032 to 50 µM, 72 h. As for the experimental part:
as §1

In data set [3] the test system is NIH/3T3 (mouse embryonic fibroblast) cell line. As to the kind of experiment: MTT cytotoxicity assay, non-tumor NIH/3T3. The class given is cell-based. As to conditions: for cytotoxic activity NIH/3T3: 0.0032 to 50 µM, 72 h. The protocol: as §1
A general note: Formazan colour is commonly taken as a measure of viable cells.

Data set [4] deals with 501Mel (melanoma) cell line. As to the kind of experiment: MTT cytotoxicity assay, 501Mel. The class given is cell-based, human. As to conditions: for cytotoxic activity 501Mel: 0.0032 to 50 µM, 72 h. As for the experimental part:
as §1

`COc1ccc(-c2coc3cc(OC)c(O)cc3c2=O)cc1` [Compound 2, Alfalone]: the “cytotoxic activity MCF‐7” value in data set [1] was “no cytotoxic activity”. Besides, the “cytotoxic activity HCT‐116” value in data set [2] was “no cytotoxic activity”. Besides, the “cytotoxic activity NIH/3T3” value in data set [3] is listed as “no cytotoxic activity”. The “cytotoxic activity 501Mel” value in data set [4] (MTT) was “no cytotoxic activity”.

As for `COc1ccc(-c2coc3c(OC)c(O)ccc3c2=O)cc1` [Compound 3, 8‐O‐methylretusin], the “cytotoxic activity MCF‐7” value in data set [1] is recorded as “no cytotoxic activity”. Further, the “cytotoxic activity HCT‐116” value in data set [2] is recorded as “no cytotoxic activity”. The “cytotoxic activity NIH/3T3” value in data set [3] was “no cytotoxic activity”. Further, in data set [4] (MTT), the “cytotoxic activity 501Mel” value is reported as “no cytotoxic activity”.

With `COc1cccc2c1C(=O)c1c(O)c3c(c(O)c1C2=O)C[C@@](O)(C(=O)CO)C[C@@H]3O[C@H]1C[C@H](N)[C@H](O)[C@H](C)O1` [Doxorubicin, reference compound], the “Selectivity Index (SI) MCF‐7” value in data set [1] (MCF-7 versus NIH/3T3) is listed as 11.67. The “Selectivity Index (SI) HCT‐116” value in data set [2] (HCT-116 versus NIH/3T3) was determined as 7.0. The IC50 in data set [3] (Mus musculus, NIH3T3, 72 h incubation, non-tumor cells) stood at 350 nM; in data set [4] (Homo sapiens, MTT, 72 h incubation) it was 120 nM. In addition, the “Selectivity Index (SI) 501Mel” value in data set [4] (501Mel versus NIH/3T3) is on record as 2.91.

By IC50 is commonly meant the midpoint of a concentration-inhibition curve. High values mean a need for much substance, low ones inhibition by little substance.
